# Laboratory results from ChEMBL document CHEMBL1909046, “DrugMatrix in vitro pharmacology data”.
# Legend:
# [1] = biological target: Protein phosphatase 3 catalytic subunit alpha (Homo sapiens, UniProt Q08209); set-up: species or system Escherichia coli;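 further: inhibition of calcineurin (PP2B) enzyme activity, measured with DiFMUP as the substrate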
# [2] = biological target: T1, Leukotriene C4 synthase (Cavia porcellus, UniProt A6XA80); type: tissue-based, Lung;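 further: enzyme inhibition assay of leukotriene C4 synthase, using LTA4 as the substrate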
# T1 sequence (A6XA80 whole entry): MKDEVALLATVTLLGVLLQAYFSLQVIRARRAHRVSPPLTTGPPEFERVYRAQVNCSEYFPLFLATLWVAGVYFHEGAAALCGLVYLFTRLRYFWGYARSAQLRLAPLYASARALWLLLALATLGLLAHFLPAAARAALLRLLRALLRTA
# [3] = biological target: T2, Thromboxane-A synthase (Homo sapiens, UniProt P24557); test: biochemical; type: tissue-based, Platelet;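 further: enzyme inhibition assay with PGH2 supplied as substrate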
# T2 sequence (P24557 whole entry): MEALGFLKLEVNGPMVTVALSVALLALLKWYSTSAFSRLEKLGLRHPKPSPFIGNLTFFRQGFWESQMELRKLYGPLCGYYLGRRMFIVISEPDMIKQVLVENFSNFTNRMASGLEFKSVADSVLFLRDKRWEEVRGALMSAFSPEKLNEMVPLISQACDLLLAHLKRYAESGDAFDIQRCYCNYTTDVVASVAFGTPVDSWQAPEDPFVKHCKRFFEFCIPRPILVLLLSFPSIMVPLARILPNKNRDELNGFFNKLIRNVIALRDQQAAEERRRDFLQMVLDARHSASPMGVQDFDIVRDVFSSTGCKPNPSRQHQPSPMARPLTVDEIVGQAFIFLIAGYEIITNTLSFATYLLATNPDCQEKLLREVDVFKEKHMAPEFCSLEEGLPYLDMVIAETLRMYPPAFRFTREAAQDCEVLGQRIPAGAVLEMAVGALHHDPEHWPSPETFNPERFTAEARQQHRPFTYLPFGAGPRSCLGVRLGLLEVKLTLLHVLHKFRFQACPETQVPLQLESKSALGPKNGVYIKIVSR
# [4] = biological target: Melanocortin receptor 3 (Homo sapiens, UniProt P41968); type: cell membranes, Membrane; conditions: hek293
# [5] = biological target: Substance-P receptor (Homo sapiens, UniProt P25103); type: cell membranes, CHO, Membrane
# [6] = biological target: T3, Interstitial collagenase (Homo sapiens, UniProt P03956); test: biochemical; type: tissue-based, Rheumatoid synovial fibroblasts;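 further: MMP-1 enzyme inhibition assay using a peptide substrate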
# T3 sequence (P03956 whole entry): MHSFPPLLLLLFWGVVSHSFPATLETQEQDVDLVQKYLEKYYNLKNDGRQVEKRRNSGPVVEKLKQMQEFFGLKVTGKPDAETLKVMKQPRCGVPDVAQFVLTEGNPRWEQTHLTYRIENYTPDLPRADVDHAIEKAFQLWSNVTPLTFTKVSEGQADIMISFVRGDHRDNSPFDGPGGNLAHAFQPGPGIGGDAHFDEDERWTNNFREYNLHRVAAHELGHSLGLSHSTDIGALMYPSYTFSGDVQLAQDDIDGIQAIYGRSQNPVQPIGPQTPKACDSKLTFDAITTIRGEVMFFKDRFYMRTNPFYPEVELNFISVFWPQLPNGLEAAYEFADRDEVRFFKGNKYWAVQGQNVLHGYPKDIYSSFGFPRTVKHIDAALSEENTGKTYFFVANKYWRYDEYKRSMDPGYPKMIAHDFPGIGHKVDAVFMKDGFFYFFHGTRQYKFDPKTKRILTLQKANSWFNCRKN
# [7] = biological target: Matrix metalloproteinase-9 (Homo sapiens, UniProt P14780); type: cell-based;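 further: inhibition of isolated MMP-9 enzyme activity toward a synthetic peptide substrate, from the DrugMatrix protease screening panel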
# [8] = biological target: Insulin receptor (Rattus norvegicus, UniProt P15127); type: cell membranes, Wistar, Liver, Membrane
# Further: in other assays of this panel Not Active means under 50% inhibition at 10 µM.
# Substance-P receptor, sequence (P25103 whole entry): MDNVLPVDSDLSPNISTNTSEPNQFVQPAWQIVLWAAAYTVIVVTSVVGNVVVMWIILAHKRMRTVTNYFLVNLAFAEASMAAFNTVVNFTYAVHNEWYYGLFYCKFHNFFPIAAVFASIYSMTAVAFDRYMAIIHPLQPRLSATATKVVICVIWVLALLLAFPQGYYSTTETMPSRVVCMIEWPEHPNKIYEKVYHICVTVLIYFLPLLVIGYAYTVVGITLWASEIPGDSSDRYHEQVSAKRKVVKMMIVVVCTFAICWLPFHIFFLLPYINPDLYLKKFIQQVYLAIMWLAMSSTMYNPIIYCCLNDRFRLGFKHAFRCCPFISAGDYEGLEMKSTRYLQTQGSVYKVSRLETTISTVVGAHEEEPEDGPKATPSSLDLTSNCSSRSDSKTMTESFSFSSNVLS
# Matrix metalloproteinase-9, sequence (P14780 whole entry): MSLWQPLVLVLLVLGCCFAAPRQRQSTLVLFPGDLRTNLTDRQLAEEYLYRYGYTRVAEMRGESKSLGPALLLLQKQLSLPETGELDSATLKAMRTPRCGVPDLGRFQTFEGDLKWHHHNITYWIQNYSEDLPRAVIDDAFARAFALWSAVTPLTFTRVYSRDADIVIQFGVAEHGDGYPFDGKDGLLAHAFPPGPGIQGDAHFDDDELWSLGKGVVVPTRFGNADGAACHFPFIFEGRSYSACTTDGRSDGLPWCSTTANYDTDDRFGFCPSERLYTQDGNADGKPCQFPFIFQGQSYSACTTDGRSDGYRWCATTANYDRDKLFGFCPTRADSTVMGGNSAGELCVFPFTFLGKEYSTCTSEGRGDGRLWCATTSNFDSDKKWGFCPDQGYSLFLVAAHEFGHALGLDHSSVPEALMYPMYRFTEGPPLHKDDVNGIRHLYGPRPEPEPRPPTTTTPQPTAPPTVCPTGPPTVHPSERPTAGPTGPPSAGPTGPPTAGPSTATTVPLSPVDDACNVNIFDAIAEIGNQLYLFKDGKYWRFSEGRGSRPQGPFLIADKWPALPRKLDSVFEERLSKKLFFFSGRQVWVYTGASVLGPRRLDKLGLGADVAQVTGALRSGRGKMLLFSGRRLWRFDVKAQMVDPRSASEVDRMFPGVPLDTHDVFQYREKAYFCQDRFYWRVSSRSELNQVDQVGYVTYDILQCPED
# Insulin receptor, sequence (P15127 27-759 limits assumed): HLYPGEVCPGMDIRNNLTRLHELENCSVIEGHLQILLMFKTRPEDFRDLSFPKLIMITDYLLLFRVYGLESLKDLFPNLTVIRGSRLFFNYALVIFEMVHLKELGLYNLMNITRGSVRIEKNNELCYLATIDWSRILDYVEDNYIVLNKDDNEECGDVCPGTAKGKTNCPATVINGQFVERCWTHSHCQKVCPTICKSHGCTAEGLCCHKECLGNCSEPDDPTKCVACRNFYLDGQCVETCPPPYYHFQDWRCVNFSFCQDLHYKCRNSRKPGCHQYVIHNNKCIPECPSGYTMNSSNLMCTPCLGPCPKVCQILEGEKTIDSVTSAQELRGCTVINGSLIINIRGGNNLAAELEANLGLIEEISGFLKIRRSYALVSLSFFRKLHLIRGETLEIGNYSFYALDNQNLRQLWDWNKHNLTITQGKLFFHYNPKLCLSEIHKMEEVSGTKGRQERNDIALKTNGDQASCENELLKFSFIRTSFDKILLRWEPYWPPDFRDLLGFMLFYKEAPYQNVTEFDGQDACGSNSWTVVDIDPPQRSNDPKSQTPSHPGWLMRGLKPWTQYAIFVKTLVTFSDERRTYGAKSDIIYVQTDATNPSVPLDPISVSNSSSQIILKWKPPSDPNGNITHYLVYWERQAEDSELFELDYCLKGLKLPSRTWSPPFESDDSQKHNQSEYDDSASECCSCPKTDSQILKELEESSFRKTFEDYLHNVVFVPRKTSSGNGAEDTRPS
# Insulin receptor, sequence (P15127 764-1383 limits assumed): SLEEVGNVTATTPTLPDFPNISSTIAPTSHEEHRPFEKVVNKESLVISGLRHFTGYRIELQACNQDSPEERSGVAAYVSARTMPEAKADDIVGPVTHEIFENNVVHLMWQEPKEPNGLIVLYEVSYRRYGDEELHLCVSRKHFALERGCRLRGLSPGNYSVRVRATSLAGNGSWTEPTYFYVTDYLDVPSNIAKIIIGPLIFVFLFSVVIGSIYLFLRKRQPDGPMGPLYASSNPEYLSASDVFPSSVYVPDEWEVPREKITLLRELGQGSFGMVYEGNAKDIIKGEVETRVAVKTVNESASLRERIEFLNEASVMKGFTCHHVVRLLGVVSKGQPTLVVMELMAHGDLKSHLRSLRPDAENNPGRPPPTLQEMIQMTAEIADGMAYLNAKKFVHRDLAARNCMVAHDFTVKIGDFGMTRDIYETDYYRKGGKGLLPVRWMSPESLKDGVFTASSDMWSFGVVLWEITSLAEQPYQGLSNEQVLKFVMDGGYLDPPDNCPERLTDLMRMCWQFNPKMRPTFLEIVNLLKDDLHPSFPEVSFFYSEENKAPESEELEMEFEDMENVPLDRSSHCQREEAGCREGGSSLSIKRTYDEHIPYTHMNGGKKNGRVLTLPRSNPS
# Melanocortin receptor 3, sequence (P41968 whole entry): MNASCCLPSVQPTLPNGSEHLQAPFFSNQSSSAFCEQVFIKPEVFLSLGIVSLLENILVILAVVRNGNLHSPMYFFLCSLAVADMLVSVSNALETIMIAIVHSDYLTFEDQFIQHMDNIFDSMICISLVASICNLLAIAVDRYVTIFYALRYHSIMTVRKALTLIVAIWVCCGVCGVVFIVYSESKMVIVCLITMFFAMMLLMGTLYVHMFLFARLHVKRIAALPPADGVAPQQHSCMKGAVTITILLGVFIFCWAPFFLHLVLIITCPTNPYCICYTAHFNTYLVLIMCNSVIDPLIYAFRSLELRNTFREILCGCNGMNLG
Compound,IC50 [1],IC50 [2],IC50 ([3]; platelet),IC50 [4],IC50 ([5]; cho),IC50 [6],IC50 [7],IC50 [8],IC50 ([3]; read-out: IC50) [µM],IC50 ([5]; read-out: IC50) [µM],Ki ([5]; read-out: Ki) [µM]
CCCCC(=O)N(Cc1ccc(-c2ccccc2-c2nnn[nH]2)cc1)[C@H](C(=O)O)C(C)C,Not Active,Not Active,Not Active,Not Active,Not Active,Not Active,Not Active,Not Active,,,
O=C(O)COc1ccc(C(=O)c2cccs2)c(Cl)c1Cl,Not Active,Not Active,Not Active,Not Active,Not Active,Not Active,Not Active,Not Active,,,
CN1[C@@H]2CC[C@H]1C[C@@H](OC(c1ccccc1)c1ccccc1)C2 [BENZTROPINE],Not Active,Not Active,Not Active,Not Active,Not Active,Not Active,Not Active,Not Active,,,
C[C@@](Cc1ccc(O)c(O)c1)(NN)C(=O)O.O [CARBIDOPA],Not Active,Not Active,Not Active,Not Active,Not Active,Not Active,Not Active,Not Active,,,
CN1CCN(C2=Nc3cc(Cl)ccc3Nc3ccccc32)CC1 [CLOZAPINE],Not Active,Not Active,Not Active,Not Active,Not Active,Not Active,Not Active,Not Active,,,
CC(C)NC[C@@H](O)COc1cccc2ccccc12 [DEXPROPRANOLOL],Not Active,Not Active,Not Active,Not Active,Not Active,Not Active,Not Active,Not Active,,,
CC(C)NC[C@H](O)COc1cccc2ccccc12 [LEVOPROPRANOLOL],Not Active,Not Active,Not Active,Not Active,Not Active,Not Active,Not Active,Not Active,,,
"O=C(O)CCCCC1CCSS1 (stereo not drawn) [LIPOIC ACID, ALPHA]",Not Active,Not Active,Not Active,Not Active,Not Active,Not Active,Not Active,Not Active,,,
CN(C)C(=O)C(CCN1CCC(O)(c2ccc(Cl)cc2)CC1)(c1ccccc1)c1ccccc1 [LOPERAMIDE],Not Active,Not Active,Not Active,Not Active,Not Active,Not Active,Not Active,Not Active,,,
Clc1ccc(COC(Cn2ccnc2)c2ccc(Cl)cc2Cl)c(Cl)c1 (configuration not stated) [MICONAZOLE],Not Active,Not Active,,,,Not Active,Not Active,Not Active,0.263,6.81,3.72
Oc1ccc2c3c1O[C@H]1[C@@H](O)CC[C@@]4(O)[C@@H](C2)N(CC2CCC2)CC[C@]314 [NALBUPHINE],Not Active,Not Active,Not Active,Not Active,Not Active,Not Active,Not Active,Not Active,,,
C[C@]12C=CC(=O)C=C1CC[C@@H]1[C@@H]2C(=O)C[C@@]2(C)[C@H]1CC[C@]2(O)C(=O)CO [PREDNISONE],Not Active,Not Active,Not Active,Not Active,Not Active,Not Active,Not Active,Not Active,,,
OCCOCCN1CCN(C2=Nc3ccccc3Sc3ccccc32)CC1 [QUETIAPINE],Not Active,Not Active,Not Active,Not Active,Not Active,Not Active,Not Active,Not Active,,,
COC(=O)[C@H]1[C@H]2C[C@@H]3c4[nH]c5cc(OC)ccc5c4CCN3C[C@H]2C[C@@H](OC(=O)c2cc(OC)c(OC)c(OC)c2)[C@@H]1OC [RESERPINE],Not Active,Not Active,Not Active,Not Active,Not Active,Not Active,Not Active,Not Active,,,
O=C(O)c1ccccc1O [SALICYLIC ACID],Not Active,Not Active,Not Active,Not Active,Not Active,Not Active,Not Active,Not Active,,,
C[S+]([O-])c1ccc(-c2nc(-c3ccncc3)c(-c3ccc(F)cc3)[nH]2)cc1 (configuration not stated) [SB-203580],Not Active,Not Active,,Not Active,Not Active,Not Active,Not Active,Not Active,,,
CC1CCC(NC(=O)N(CCCl)N=O)CC1 (configuration not stated) [SEMUSTINE],Not Active,Not Active,Not Active,Not Active,Not Active,Not Active,Not Active,Not Active,,,
O=C1C[C@@H]2OCC=C3CN4CC[C@]56c7ccccc7N1[C@H]5[C@H]2[C@H]3C[C@H]46 [STRYCHNINE],Not Active,Not Active,Not Active,Not Active,Not Active,Not Active,Not Active,Not Active,,,
C[N+](C)(C)CCOC(=O)CCC(=O)OCC[N+](C)(C)C.[Cl-].[Cl-] [SUCCINYLCHOLINE CHLORIDE],Not Active,Not Active,Not Active,Not Active,Not Active,Not Active,Not Active,Not Active,,,
Nc1ccc(S(=O)(=O)NC(=O)c2ccccc2)cc1 [SULFABENZAMIDE],Not Active,Not Active,Not Active,Not Active,Not Active,Not Active,Not Active,Not Active,,,
CCCCCCCCNC(C)C(O)c1ccc(SC(C)C)cc1 (configuration not stated) [SULOCTIDIL],Not Active,Not Active,Not Active,Not Active,Not Active,Not Active,Not Active,Not Active,,,
O=c1[nH]c(=O)n(C2CCCO2)cc1F (configuration not stated) [TEGAFUR],Not Active,Not Active,Not Active,Not Active,Not Active,Not Active,Not Active,Not Active,,,
CC(=N)S [THIOACETAMIDE],Not Active,Not Active,Not Active,Not Active,Not Active,Not Active,Not Active,Not Active,,,
Cc1ccc(C(=O)c2ccc(CC(=O)O)n2C)cc1 [TOLMETIN],Not Active,Not Active,Not Active,Not Active,Not Active,Not Active,Not Active,Not Active,,,
CC(=O)OCC(COC(C)=O)OC(C)=O [TRIACETIN],Not Active,Not Active,Not Active,Not Active,Not Active,Not Active,Not Active,Not Active,,,
CN1CCN(CCCN2c3ccccc3Sc3ccc(C(F)(F)F)cc32)CC1 [TRIFLUOPERAZINE],Not Active,Not Active,Not Active,Not Active,Not Active,Not Active,Not Active,Not Active,,,
